Results on 39 compounds are retold here after ChEMBL document CHEMBL2203023, “Synopsis of some recent tactical application of bioisosteres in drug design” (J Med Chem, 2011).

SMILES strings stand for the structures. A value given as a limit tells only on which side of the number the result lay.

Data set [1] can be described thus: in vitro. Particulars: mouse, liver microsomes.
The nature of data set [2]: in vitro. Particulars: human, liver microsomes. A general note: Microsomes from liver hold many membrane-bound enzymes, among them those of drug oxidation.
Data set [3] in a line: physchem.
Data set [4] in a line: physchem. Particulars: octanol/water.
A short description of data set [5]: physchem. The note with it: octanol/water, pH 7.4.
For data set [6], the system named is Human immunodeficiency virus 1. Nature of the data set: microbe, parasite or virus in culture.
A further data set in a line: cells. Particulars: Homo sapiens, Platelet, Plasma.
Data set [7] in a line: physchem. This is another data set of the same source.
The test system of data set [8] is Platelet. Put plainly: cells. Particulars: Homo sapiens, Plasma.
Data set [9] relates to Platelet. Nature of the data set: cells. Particulars: Homo sapiens, Plasma. The source holds these as a separate data set.
For another data set, the species on record is Rattus norvegicus. Put plainly: animal or person. The note with it: read-out: INH.
A short description of data set [10]: in vitro. Particulars: human, Caco-2.
Data set [11] is described as follows: in vivo. Particulars: rat, po.
A short description of data set [12]: in vitro. Particulars: human, liver microsomes. The source holds these as a separate data set.
Data set [13] in a line: in vitro. The note with it: rat, liver microsomes.
Data set [14] can be described thus: in vitro. Particulars: human, Caco-2. This is another data set of the same source.
The nature of data set [15]: physchem. Particulars: octanol/water, pH 7.4. The source holds these as a separate data set.
The test system of data set [16] is Respiratory syncytial virus. Nature of the data set: microbe, parasite or virus in culture. Particulars: human respiratory syncytial virus.
The next data set deals with Syrian golden hamster. Nature of the data set: animal or person. The note with it: Mesocricetus auratus.
Data set [17] is described as follows: in vivo. The note with it: rat.
The nature of another data set: clinical. The note with it: human, in vivo.

Regarding `CN(C)CCCCc1ccc(C2COC2)cc1`, the microsomal CLint (usually the capacity of the preparation to metabolise the compound, expressed as a volume cleared per time) came to 27 µL/min/mg in “in vitro [1]” and 2 µL/min/mg in the data set “in vitro [2]”. Moreover, the concentration in solution in “physchem [3]” (solubility) came to 4000 µg/mL.
As for `CN(C)CCCCc1ccc(C(C)(C)C)cc1`, the microsomal CLint in “in vitro [1]” was found to be 417 µL/min/mg; in “in vitro [2]”, 16 µL/min/mg. Besides, in “physchem [3]”, the solubility (commonly how much of the substance goes into solution per volume) is under 1 µg/mL. Moreover, the logP (in general, a log measure of how a compound divides between an organic and an aqueous phase) in the data set “physchem [4]” stood at 4.3. In the data set “physchem [5]”, the logD – broadly, lipophilicity at a set pH, counting ionised and neutral species – amounted to 1.8.
`CN(C)CCCCc1ccc(C2(C)COC2)cc1` registered a microsomal CLint in “in vitro [1]” of 43 µL/min/mg. The compound further returned a solubility in the data set “physchem [3]” of 4400 µg/mL.
Consider `CN(C)CCC1(Cc2ccc(C(C)(C)C)cc2)COC1`, for which the microsomal CLint in the data set “in vitro [1]” is 13 µL/min/mg; in the data set “in vitro [2]”, 6 µL/min/mg. This compound also yielded a solubility in “physchem [3]” of 4100 µg/mL.
In the same order, the values of `CN(C)C1(CCCc2ccc(C(C)(C)C)cc2)COC1` are 580 µL/min/mg, 13 µL/min/mg and 57 µg/mL.
In the data set “in vitro [1]”, `CN(C)CCCC1(c2ccc(C(C)(C)C)cc2)COC1` gave a microsomal CLint of 147 µL/min/mg. Moreover, in “physchem [3]”, the solubility was 270 µg/mL.
Regarding `O=C(N[C@H]1c2ccccc2C[C@H]1O)[C@H](Cc1ccccc1)CC(O)C[C@@H](Cc1ccccc1)C(=O)N[C@H]1c2ccccc2C[C@H]1O`, it took 23 nM to reach the 90% level in [6] (EC90).
Turning to `NCc1cc(F)c(O)c(F)c1`, the logP in the data set “physchem [4]” turned out to be 1.01.
For the compound `O=C(O)/C=C/c1cccc(CCc2nc(-c3ccccc3)c(-c3ccccc3)o2)c1`, the EC50 (commonly the concentration that produces a half-maximal response) in the data set “cells” is 660 nM.
For `O=C(O)CCc1cccc(CCc2nc(-c3ccccc3)c(-c3ccccc3)o2)c1`, the EC50 in “cells” is 16000 nM. This EC50 is about 24-fold higher than that of the compound before.
`O=C(O)/C=C/c1cccc(OCc2nc(-c3ccccc3)c(-c3ccccc3)o2)c1` showed an EC50 in the data set “cells” of 14000 nM.
Consider `Oc1c(F)cccc1F`, for which the pKa (usually the pH at which an ionisable group is half protonated) in “physchem [7]” was 7.12.
As to `O=C(O)COc1cccc(-c2ocnc2-c2nc(-c3ccccc3)c(-c3ccccc3)o2)c1`, the EC50 in the data set with Platelet [8] and in the data set with Platelet [9] was 27 nM each time.
Take `O=c1c(O)c(-c2ccccc2)c1=O`: the pKa in “physchem [7]” stood at 0.37.
As to `O=S(=O)(Nc1ccncc1Oc1ccccc1)C(F)(F)F`, in the data set listed under Rattus norvegicus, the inhibition in vivo at 30 mg/kg was 54.1%.
As to `O=C(c1ccccc1)c1ccn(-c2cc(F)c(O)c(F)c2)c1`, in “physchem [4]”, the logP amounted to 3.56.
For `Cc1nccn1-c1ccc(NC(=O)c2cc(C(F)(F)F)nn2-c2ccc3onc(N)c3c2)c(F)c1`, the Papp (in general, the rate of passage across a membrane or cell layer, normalised by area and donor concentration) in “in vitro [10]” was found to be 7.41 ×10⁻⁶ cm/s.
Turning to `Cc1nccn1-c1ccc(NC(=O)c2cc(C(F)(F)F)nn2-c2ccc3onc(N)c3c2)c(C#N)c1`, the Papp in “in vitro [10]” was under 0.1 ×10⁻⁶ cm/s.
With `CCc1cc(C#N)ccc1Nc1c(N[C@H](C)C(C)(C)C)c(=O)c1=O`, the bioavailability – broadly, dose-corrected exposure relative to a reference, in per cent – in “in vivo [11]” is 70%.
Consider `O=C(N[C@H]1c2ccccc2C[C@H]1O)[C@H](Cc1ccccc1)C[Si](O)(O)C[C@@H](Cc1ccccc1)C(=O)N[C@H]1c2ccccc2C[C@H]1O`, for which, in data set [6], the EC90 (as a rule, the concentration at which the effect reaches the 90% level) turned out to be 170 nM.
Turning to `O=C(CCCN1CC[Si](O)(c2ccc(Cl)cc2)CC1)c1ccc(F)cc1`, the half-life – broadly, how long it takes for the measured level to halve – in the data set “in vitro [12]” worked out at 65 min; in “in vitro [13]” it was 18 min. Further, the Papp in “in vitro [14]” worked out at 19.8 ×10⁻⁶ cm/s. In “physchem [7]”, this compound displayed a pKa of 9.27. This compound displayed a solubility in “physchem [3]” of 78 µM. This compound had a logD in the data set “physchem [15]” of 2.77.
On to `COC(=O)N[C@@H](C(=O)NCCCC[C@H](CO)N(CC(C)C)S(=O)(=O)c1ccc(CN)cc1)C(c1ccccc1)c1ccccc1`, for which the response in [6] was half-maximal at 30 nM (EC50). In other words, the double-digit nanomolar range.
`C=C(C)n1c(=O)n(Cc2nc3ccccc3n2CCCC#N)c2cnccc21` came in with a half-life in the data set “in vitro [12]” of 11 min. Besides, the EC50 in data set [16] worked out at 3 nM.
On to `COc1ccc(C2[C@@H](CCCc3ccccc3)C(=O)N2c2ccc(OC)cc2)cc1` (stereo not given in full), for which it took a dose of 2.2 mg/kg to reach the 50% effect level with Syrian golden hamster (ED50).
The compound `NCc1ccc(F)c(O)c1F` gave a logP in “physchem [4]” of 1.01.
For `O=C(O)CCc1cccc(OCc2nc(-c3ccccc3)c(-c3ccccc3)o2)c1`, the EC50 in “cells” was over 80000 nM.
`O=C(O)COc1cccc(/C=C\c2nc(-c3ccccc3)c(-c3ccccc3)o2)c1`: the EC50 with Platelet [8] and with Platelet [9] was 180 nM in each case.
`O=C(O)COc1cccc(OCc2nc(-c3ccccc3)c(-c3ccccc3)o2)c1` had an EC50 in the data set “cells” of 1200 nM. This lies in the single-digit micromolar range.
As to `O=C(O)COc1cccc(-c2ncoc2-c2nc(-c3ccccc3)c(-c3ccccc3)o2)c1`, the EC50 in the data set on Platelet [8] and in the data set with Platelet [9] was 160 nM in each case.
Take `Cc1nccn1-c1ccc(NC(=O)c2cc(C(F)(F)F)nn2-c2ccc3onc(N)c3c2)cc1`: the Papp in the data set “in vitro [10]” stood at 0.82 ×10⁻⁶ cm/s.
`O=C(O)Cn1ccc(C(=O)c2ccccc2)c1`: the logP in the data set “physchem [4]” is 1.23.
As for `COc1ccc(C(CN(C)C)[Si]2(O)CCCCC2)cc1` (racemic), the pKa in “physchem [7]” stood at 9.7. In “physchem [15]”, this compound registered a logD of 0.92. Moreover, the logP in the data set “physchem [4]” came to 3.21.
`COc1ccc(C(CN(C)C)C2(O)CCCCC2)cc1` (racemic) [VENLAFAXINE] displayed a logD in “physchem [15]” of 0.88. The log partition coefficient (logP) in the data set “physchem [4]” came out at 3.13.
In turn, `Cc1ccc(-c2cc(C(F)(F)F)nn2-c2ccc(S(N)(=O)=O)cc2)cc1` [CELECOXIB] showed a half-life in “in vivo [17]” of 3.5 h.
`O=C1N(Cc2ccc(CO)cc2)[C@H](Cc2ccccc2)[C@H](O)[C@@H](O)[C@@H](Cc2ccccc2)N1Cc1ccc(CO)cc1` [DMP-323] came in with an EC90 in data set [6] of 57 nM.
Turning to `O=C1[C@H](CC[C@H](O)c2ccc(F)cc2)[C@@H](c2ccc(O)cc2)N1c1ccc(F)cc1` [EZETIMIBE], in the data set on Syrian golden hamster, the ED50 (usually the dose at which the effect has come halfway, by size or by number of responders) is 0.04 mg/kg.
With `O=C(CCCN1CCC(O)(c2ccc(Cl)cc2)CC1)c1ccc(F)cc1` [HALOPERIDOL], the Papp in “in vitro [14]” amounted to 18.9 ×10⁻⁶ cm/s. The compound also gave a solubility in the data set “physchem [3]” of 90 µM. This compound showed a logD in the data set “physchem [15]” of 2.42.
Regarding `CC#CCC(C)[C@H](O)/C=C/[C@@H]1[C@H]2C/C(=C/CCCC(=O)O)C[C@H]2C[C@H]1O` (stereo not given in full) [ILOPROST], the half-life in “clinical” worked out at 20 min.
The compound `CS(=O)(=O)c1ccc(-n2nc(C(F)(F)F)cc2-c2ccc(F)cc2)cc1` [SC-58125] gave a half-life in “in vivo [17]” of 221 h.
